Measurements: patent publication US5712274A, “Thienotriazolodiazepine compounds and their pharmaceutical use” (Yoshitomi Pharmaceutical Industries, Ltd., priority 1995, dated 1998)

How the values were obtained:
[1] = tested on: CD11b; assay: Effect on CD11b expression in human histiocytic leukemia cell line, U937 cells (PDB-induced); assay type: cell-based; conditions: U-937, 72 h, U937 cells, PDB 10 ng/ml, 3 days, read-out: Inhibitory effect on CD11b expression (IC50)
Method: Effect on CD11b expression human histiocytic leukemia cell line, U937 cells
Effect on the expression of CD11b antigen, which is the α chain of an adhesion molecule, Mac-1 expressing on the surface of leukocytgic cells, was investigated. U937 cells were suspended in RPMI1640 medium containing 20% fetal calf serum (FCS), plated with phorbol 12,13-dibutyrate (PDB, 10 ng/ml) into 96-well filtration plates, and cultured for 3 days at 37° C. in 5% CO2. After the cells were washed once with RPMI1640 medium, rat anti-human CD11b antibody (2 μg/ml) was added to each well and the plates were incubated for 1 hr on ice. After the cell were washed twice, peroxidase-conjugated anti-rat immunoglobulin antibody (1 μg/ml) was added, and the cells were incubated for 1 hr on ice. After the cells were washed 3 times, substrate for peroxidase (o-phenylenediamine) was added. After the plates were stood for 15 min at room temperature, absorbance at 490 nm was measured with a 96-well microplate reader and was regarded as a indicator of CD11b antigen expression.

[2] = tested on: thioglycollate (TG) medium-induced infiltration of leukocytes; assay: Effect on thioglycollate (TG) medium-induced infiltration of leukocytes; assay type: in vivo, BALB/c mice; conditions: TG medium 1 ml, day 4
Method: Effect on thioglycollate (TG) medium-induced infiltration of leukocytes
One ml of TG medium was injected into peritoneal cavity of BALB/c mice on day 0. On day 4, leukocytes infiltrating into the peritoneal cavity were collected with 3 ml of phosphatebuffered saline containing 0.02% EDTA and the density of leukocytes (cells/ml) was counted with an automatic blood cell counter. Total number of leukocytes (X) was calculated from the density of leukocytes (A) with the following formula.
Test compounds were suspended in 0.5% hydroxypropylmethyl-cellulose solution and administered p.o. (0.1 ml/10 g body weight) on days 0 to 3.

[3] = tested on: antigen induced Eosinophils accumulation into lungs; assay: Effect on antigen induced eosinophils accumulation into lungs in actively sensitized guinea pigs; assay type: in vivo, male Dunkin-Hartley guinea pigs; conditions: 30 mg/kg p.o., BALF 24 h after antigen exposure
Method: Effect on antigen induced Eosinophils accumulation into lungs in actively sensitized guinea pigs
Male Dunkin-Hartley guinea pigs (4W, Japan SLC, Inc.) were used throughout this study.
Sensitized animals were orally administered (p.o.) with compound or solvent (0.5% hydroxymethylcellulose) 30 min. before final sensitization, 30 min. before antigen exposure and 4.5 h after antigen exposure.
Egg albumin (EA, 10 μg) was added to AI(OH)3 (10 mg) in sterile physiological saline (0.5 ml) and mixed in a blender. This mixture was injected intraperitoneally into recipients. And after 14 days and 21 days, the procedure was repeated. Seven days after the final sensitization procedure, Mepyramine 10 mg/kg was injected intraperitoneally into the sensitized animals. After 30 min., the animals were exposed to aerosol of 1% EA in sterile physiological saline for 5 min.
24 h after antigen exposure, the animals were killed by exsanguination and tracheae were cannulated. And the lungs were lavaged three times with 10 ml of sterile physiological saline. Lavage fluid (BALF) was centrifuged (800 rpm for 10 min. at 4° C.) and the cell pellet was resuspended in 10 ml of sterile physilolgical saline and total cell numbers in BALF were counted in a hemocytometer (MEK 4200, Nihon-kohden, Ltd.). Differential cell counts were made from centrifuged preparations stained with May-Giemsa stain.

Question: `CNC(=O)C[C@@H]1N=C(c2ccc(Cl)cc2)c2c(sc(C)c2C)-n2c(C)nnc21` [Example 1, (S)-N-methyl-4-(4-chloro-phenyl)-2,3,9-trimethyl-6H-thieno[3,2-f][1,2,4]triazolo[4,3-a]-[1,4]diazepine-6-acetamide 1/4 hydrate] was tested. Which IC50 [1] did it give?
Answer: The IC50 was 0.26 µM.

Question: What about the “Total number of leukocytes (mean ± S.D.)” value ([2]; 0.03 mg/kg/day p.o.) of the same molecule?
Answer: The value was 1059 ± 285 × 10^4.

Question: And the “Total number of leukocytes (mean ± S.D.)” value ([2]; 0.1 mg/kg/day p.o.)?
Answer: The value was 719 ± 308 × 10^4.

Question: What about the “Total number of leukocytes (mean ± S.D.)” value ([2]; 0.3 mg/kg/day p.o.) of the same molecule?
Answer: The value was 442 ± 117 × 10^4.

Question: And the Number of eosinophils [3]?
Answer: The Number of eosinophils was 7.0 ± 1.4 × 10^6.
